From ChEMBL document CHEMBL1201862, “PubChem BioAssay data set” (2004)
The source made the active and inactive calls.

How the values were obtained:
Format in all cases: functional
[1] = biological target: Melanin-concentrating hormone receptor 1 (Homo sapiens, UniProt Q99705); experiment: Late-stage fluorescence-based counterscreen for antagonists of the G-protein coupled receptor 7 (GPR7): cell-based dose response assay to identify antagonists of the melanin-concentrating hormone receptor 1 (MCHR1) Set 6.
[2] = biological target: Neuropeptides B/W receptor type 1 (Homo sapiens, UniProt P48145); experiment: human NPBW1 receptor blockade, IC50 – cell-based, fluorescence, dose response, set 6, late-stage follow-up (AID 588583)
[3] = biological target: Receptor-type tyrosine-protein kinase FLT3 (Homo sapiens, UniProt P36888);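 note: FLT3 was tested as one member of a kinome-wide kinase panel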
[4] = biological target: Tyrosine-protein kinase ABL1 (Homo sapiens, UniProt P00519)
[5] = biological target: Cyclin-dependent kinase 9 (Homo sapiens, UniProt P50750);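 note: value from the CDK9 entry of a kinome-spanning kinase panel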
[6] = biological target: Aurora kinase A (Homo sapiens, UniProt O14965);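 note: value from the Navigating the Kinome kinase panel profiling, panel entry STK6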
[7] = biological target: Fibroblast growth factor receptor 1 (Homo sapiens, UniProt P11362)
[8] = biological target: High affinity nerve growth factor receptor (Homo sapiens, UniProt P04629);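 note: NTRK1 tested as one member of a kinome-wide profiling panel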
[9] = biological target: Vascular endothelial growth factor receptor 1 (Homo sapiens, UniProt P17948);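 note: measured within a kinome-wide profiling panel, FLT1 as the panel member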
[10] = biological target: BDNF/NT-3 growth factors receptor (Homo sapiens, UniProt Q16620);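 note: NTRK2 measured as one member of a broad kinome-wide kinase profiling panel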
[11] = biological target: Macrophage colony-stimulating factor 1 receptor (Homo sapiens, UniProt P07333);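 note: value comes from the Navigating the Kinome screening panel, CSF1R member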
[12] = biological target: Protein kinase C theta type (Homo sapiens, UniProt Q04759); experiment: Navigating the Kinome. Panel member name: PRKCQ
[13] = biological target: Dual specificity tyrosine-phosphorylation-regulated kinase 1B (Homo sapiens, UniProt Q9Y463); experiment: Navigating the Kinome. Panel member name: DYRK1B
[14] = biological target: Dual specificity mitogen-activated protein kinase kinase 1 (Homo sapiens, UniProt Q02750); experiment: Navigating the Kinome. Panel member name: MAP2K1
[15] = biological target: Serine/threonine-protein kinase D3 (Homo sapiens, UniProt O94806);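 note: determined within a kinase panel screen, with PRKCN as the panel member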
[16] = biological target: Glycogen synthase kinase-3 beta (Homo sapiens, UniProt P49841);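 note: value comes from a broad kinome profiling panel, with GSK3B as the panel member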
[17] = biological target: Tyrosine-protein kinase Fyn (Homo sapiens, UniProt P06241)
[18] = biological target: Leukocyte tyrosine kinase receptor (Homo sapiens, UniProt P29376); experiment: Navigating the Kinome. Panel member name: LTK
[19] = biological target: Tyrosine-protein kinase receptor TYRO3 (Homo sapiens, UniProt Q06418);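 note: TYRO3 value obtained as one member of a kinome-wide profiling panel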
[20] = biological target: Cyclin-dependent kinase 5 (Homo sapiens, UniProt Q00535);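 note: CDK5 measured as one member of a kinase profiling panel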
[21] = biological target: Dual specificity tyrosine-phosphorylation-regulated kinase 1A (Homo sapiens, UniProt Q13627);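 note: measured against DYRK1A as one member of a broad kinome profiling panel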
[22] = biological target: Glycogen synthase kinase-3 alpha (Homo sapiens, UniProt P49840);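 note: GSK3A result taken from a broad kinome-wide kinase panel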
[23] = biological target: cAMP-dependent protein kinase catalytic subunit alpha (Homo sapiens, UniProt P17612)
[24] = biological target: Serine/threonine-protein kinase TBK1 (Homo sapiens, UniProt Q9UHD2); experiment: Navigating the Kinome. Panel member name: TBK1
[25] = biological target: Activin receptor type-1 (Homo sapiens, UniProt Q04771); experiment: Navigating the Kinome. Panel member name: ACVR1
[26] = biological target: Proto-oncogene tyrosine-protein kinase receptor Ret (Homo sapiens, UniProt P07949);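 note: measured within a kinome-wide profiling panel, RET as the panel member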
[27] = biological target: 5'-AMP-activated protein kinase catalytic subunit alpha-1 (Homo sapiens, UniProt Q13131)
[28] = biological target: Serine/threonine-protein kinase PAK 4 (Homo sapiens, UniProt O96013);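 note: value obtained within a kinome profiling panel in which PAK4 was one of the panel members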
[29] = biological target: LIM domain kinase 1 (Homo sapiens, UniProt P53667); experiment: Navigating the Kinome. Panel member name: LIMK1
[30] = biological target: cAMP-dependent protein kinase catalytic subunit PRKX (Homo sapiens, UniProt P51817)
[31] = biological target: Serine/threonine-protein kinase Chk1 (Homo sapiens, UniProt O14757);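 note: measured as one member of a kinome-wide kinase profiling panel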
[32] = biological target: Tyrosine-protein kinase JAK3 (Homo sapiens, UniProt P52333)
[33] = biological target: Serine/threonine-protein kinase TAO1 (Homo sapiens, UniProt Q7L7X3)
[34] = biological target: Dual specificity mitogen-activated protein kinase kinase 2 (Homo sapiens, UniProt P36507); experiment: Navigating the Kinome. Panel member name: MAP2K2
[35] = biological target: Tyrosine-protein kinase BTK (Homo sapiens, UniProt Q06187)
[36] = biological target: Tyrosine-protein kinase JAK2 (Homo sapiens, UniProt O60674);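 note: JAK2 tested as one member of a kinase panel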
[37] = biological target: Serine/threonine-protein kinase pim-1 (Homo sapiens, UniProt P11309)
[38] = biological target: Activated CDC42 kinase 1 (Homo sapiens, UniProt Q07912); experiment: Navigating the Kinome. Panel member name: ACK1
[39] = biological target: Vascular endothelial growth factor receptor 2 (Homo sapiens, UniProt P35968)
[40] = biological target: Calcium/calmodulin-dependent protein kinase type II subunit alpha (Homo sapiens, UniProt Q9UQM7); experiment: Navigating the Kinome. Panel member name: CAMK2A
[41] = biological target: Macrophage-stimulating protein receptor (Homo sapiens, UniProt Q04912); experiment: Navigating the Kinome. Panel member name: MST1R
[42] = biological target: Dual specificity protein kinase CLK2 (Homo sapiens, UniProt P49760)
[43] = biological target: Dual specificity protein kinase CLK4 (Homo sapiens, UniProt Q9HAZ1)
[44] = biological target: Insulin-like growth factor 1 receptor (Homo sapiens, UniProt P08069); experiment: Navigating the Kinome. Panel member name: IGF1R
[45] = biological target: G protein-coupled receptor kinase 5 (Homo sapiens, UniProt P34947); experiment: Navigating the Kinome. Panel member name: GPRK5
[46] = biological target: Mitogen-activated protein kinase 9 (Homo sapiens, UniProt P45984);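 note: value from a kinome panel profiling assay, MAPK9 panel entry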
[47] = biological target: ALK tyrosine kinase receptor (Homo sapiens, UniProt Q9UM73);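 note: ALK tested as one member of a kinase panel screen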
[48] = biological target: Rho-associated protein kinase 1 (Homo sapiens, UniProt Q13464);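 note: measured within a broad kinome-wide panel profiling many kinases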
[49] = biological target: Death-associated protein kinase 3 (Homo sapiens, UniProt O43293);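 note: measured as one member of a kinome-wide profiling panel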
[50] = biological target: Cyclin-dependent kinase 7 (Homo sapiens, UniProt P50613);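 note: value comes from a kinome-wide kinase profiling panel in which CDK7 is one member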
[51] = biological target: Mitogen-activated protein kinase 14 (Homo sapiens, UniProt Q16539);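 note: part of a kinome-wide panel, MAPK14 entry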
[52] = biological target: Platelet-derived growth factor receptor alpha (Homo sapiens, UniProt P16234); experiment: Navigating the Kinome. Panel member name: PDGFRA
[53] = biological target: Aurora kinase B (Homo sapiens, UniProt Q96GD4)
[54] = biological target: Hepatocyte growth factor receptor (Homo sapiens, UniProt P08581);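 note: kinase panel profiling across the kinome, with MET as the panel member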
[55] = biological target: Mitogen-activated protein kinase 8 (Homo sapiens, UniProt P45983);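 note: value comes from one member of a kinome-wide kinase profiling panel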
[56] = biological target: Leucine-rich repeat serine/threonine-protein kinase 2 (Homo sapiens, UniProt Q5S007);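 note: value from a broad kinome-wide panel profiling study in which LRRK2 was one of the kinases tested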
[57] = biological target: Mitogen-activated protein kinase kinase kinase kinase 2 (Homo sapiens, UniProt Q12851);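 note: measured as one member of a kinome-wide kinase panel, with MAP4K2 as the panel entry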
[58] = biological target: Cyclin-dependent kinase 8 (Homo sapiens, UniProt P49336); experiment: Navigating the Kinome. Panel member name: CDK8
[59] = biological target: Inhibitor of nuclear factor kappa-B kinase subunit epsilon (Homo sapiens, UniProt Q14164); experiment: Navigating the Kinome. Panel member name: IKBKE
[60] = biological target: Serine/threonine-protein kinase PLK1 (Homo sapiens, UniProt P53350);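 note: PLK1 measured as one member of a kinome-wide profiling panel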
[61] = biological target: MAP kinase-activated protein kinase 2 (Homo sapiens, UniProt P49137);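 note: measured as one member of a kinome-wide kinase panel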
[62] = biological target: Cyclin-dependent kinase 1 (Homo sapiens, UniProt P06493);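 note: Kinome-wide panel profiling, with the target listed as panel member CDC2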

Aurora kinase B, sequence (Q96GD4 whole entry): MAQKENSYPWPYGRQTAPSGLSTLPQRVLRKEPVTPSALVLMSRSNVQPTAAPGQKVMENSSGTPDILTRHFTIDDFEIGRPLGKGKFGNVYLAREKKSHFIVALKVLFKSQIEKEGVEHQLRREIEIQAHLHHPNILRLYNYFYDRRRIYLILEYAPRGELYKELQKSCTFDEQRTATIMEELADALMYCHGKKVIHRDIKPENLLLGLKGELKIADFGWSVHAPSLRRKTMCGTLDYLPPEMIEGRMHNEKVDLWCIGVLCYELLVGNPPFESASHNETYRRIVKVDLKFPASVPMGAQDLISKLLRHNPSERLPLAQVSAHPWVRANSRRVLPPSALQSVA
Glycogen synthase kinase-3 alpha, sequence (P49840 whole entry): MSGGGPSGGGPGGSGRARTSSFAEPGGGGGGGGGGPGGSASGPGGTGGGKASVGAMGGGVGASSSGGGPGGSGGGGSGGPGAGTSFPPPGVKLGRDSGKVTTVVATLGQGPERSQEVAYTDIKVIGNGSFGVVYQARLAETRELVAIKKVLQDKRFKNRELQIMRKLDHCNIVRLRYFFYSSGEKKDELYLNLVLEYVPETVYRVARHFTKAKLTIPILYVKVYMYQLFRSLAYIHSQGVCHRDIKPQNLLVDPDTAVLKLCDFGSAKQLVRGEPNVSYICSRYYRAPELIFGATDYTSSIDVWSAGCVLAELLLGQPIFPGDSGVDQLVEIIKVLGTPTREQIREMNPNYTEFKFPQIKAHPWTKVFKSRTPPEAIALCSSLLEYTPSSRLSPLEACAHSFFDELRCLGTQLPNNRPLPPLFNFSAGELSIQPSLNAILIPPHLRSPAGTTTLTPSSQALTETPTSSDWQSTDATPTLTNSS
Serine/threonine-protein kinase pim-1, sequence (P11309 whole entry): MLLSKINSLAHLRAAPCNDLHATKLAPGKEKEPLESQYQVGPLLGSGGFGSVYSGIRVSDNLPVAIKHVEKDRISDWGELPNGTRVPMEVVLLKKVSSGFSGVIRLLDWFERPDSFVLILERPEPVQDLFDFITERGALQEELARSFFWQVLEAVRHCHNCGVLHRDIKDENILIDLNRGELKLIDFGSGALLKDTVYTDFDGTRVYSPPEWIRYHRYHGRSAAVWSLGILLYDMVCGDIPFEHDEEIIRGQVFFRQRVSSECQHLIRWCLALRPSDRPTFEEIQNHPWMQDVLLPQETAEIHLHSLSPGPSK
Vascular endothelial growth factor receptor 2, sequence (P35968 whole entry): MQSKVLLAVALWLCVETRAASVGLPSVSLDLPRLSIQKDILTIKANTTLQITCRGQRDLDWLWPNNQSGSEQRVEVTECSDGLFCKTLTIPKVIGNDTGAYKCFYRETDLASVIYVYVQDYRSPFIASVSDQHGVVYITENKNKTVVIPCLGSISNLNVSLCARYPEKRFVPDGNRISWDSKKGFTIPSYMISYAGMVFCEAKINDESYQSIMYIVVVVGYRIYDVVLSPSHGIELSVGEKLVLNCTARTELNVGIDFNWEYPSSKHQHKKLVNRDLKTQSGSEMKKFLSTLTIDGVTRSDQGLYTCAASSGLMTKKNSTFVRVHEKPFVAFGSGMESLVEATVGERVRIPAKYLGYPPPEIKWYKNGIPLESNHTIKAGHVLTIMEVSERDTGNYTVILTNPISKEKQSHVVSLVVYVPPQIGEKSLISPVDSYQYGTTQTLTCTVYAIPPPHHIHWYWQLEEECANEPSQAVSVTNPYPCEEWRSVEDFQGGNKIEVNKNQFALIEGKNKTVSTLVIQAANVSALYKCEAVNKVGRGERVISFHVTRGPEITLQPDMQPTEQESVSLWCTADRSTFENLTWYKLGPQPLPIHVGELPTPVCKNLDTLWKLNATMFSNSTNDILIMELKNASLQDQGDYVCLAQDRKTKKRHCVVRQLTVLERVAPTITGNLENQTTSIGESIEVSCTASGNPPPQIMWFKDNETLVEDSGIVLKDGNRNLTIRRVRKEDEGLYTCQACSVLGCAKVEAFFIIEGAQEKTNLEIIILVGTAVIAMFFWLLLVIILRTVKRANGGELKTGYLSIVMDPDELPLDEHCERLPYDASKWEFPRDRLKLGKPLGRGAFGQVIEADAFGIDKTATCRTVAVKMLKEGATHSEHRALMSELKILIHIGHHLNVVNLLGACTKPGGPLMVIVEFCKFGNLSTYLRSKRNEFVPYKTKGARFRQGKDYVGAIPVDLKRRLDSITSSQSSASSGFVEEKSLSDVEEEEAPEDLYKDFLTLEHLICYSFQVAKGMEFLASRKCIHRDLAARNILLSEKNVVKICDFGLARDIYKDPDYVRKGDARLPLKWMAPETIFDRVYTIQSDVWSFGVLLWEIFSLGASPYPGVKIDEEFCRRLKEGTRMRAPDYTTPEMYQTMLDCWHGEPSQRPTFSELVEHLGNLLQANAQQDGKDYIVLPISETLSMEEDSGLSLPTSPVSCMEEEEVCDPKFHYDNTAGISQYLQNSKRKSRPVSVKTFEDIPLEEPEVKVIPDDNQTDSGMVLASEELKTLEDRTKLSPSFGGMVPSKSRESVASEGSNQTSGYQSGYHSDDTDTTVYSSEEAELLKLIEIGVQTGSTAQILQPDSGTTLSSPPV
Vascular endothelial growth factor receptor 1, sequence (P17948 whole entry): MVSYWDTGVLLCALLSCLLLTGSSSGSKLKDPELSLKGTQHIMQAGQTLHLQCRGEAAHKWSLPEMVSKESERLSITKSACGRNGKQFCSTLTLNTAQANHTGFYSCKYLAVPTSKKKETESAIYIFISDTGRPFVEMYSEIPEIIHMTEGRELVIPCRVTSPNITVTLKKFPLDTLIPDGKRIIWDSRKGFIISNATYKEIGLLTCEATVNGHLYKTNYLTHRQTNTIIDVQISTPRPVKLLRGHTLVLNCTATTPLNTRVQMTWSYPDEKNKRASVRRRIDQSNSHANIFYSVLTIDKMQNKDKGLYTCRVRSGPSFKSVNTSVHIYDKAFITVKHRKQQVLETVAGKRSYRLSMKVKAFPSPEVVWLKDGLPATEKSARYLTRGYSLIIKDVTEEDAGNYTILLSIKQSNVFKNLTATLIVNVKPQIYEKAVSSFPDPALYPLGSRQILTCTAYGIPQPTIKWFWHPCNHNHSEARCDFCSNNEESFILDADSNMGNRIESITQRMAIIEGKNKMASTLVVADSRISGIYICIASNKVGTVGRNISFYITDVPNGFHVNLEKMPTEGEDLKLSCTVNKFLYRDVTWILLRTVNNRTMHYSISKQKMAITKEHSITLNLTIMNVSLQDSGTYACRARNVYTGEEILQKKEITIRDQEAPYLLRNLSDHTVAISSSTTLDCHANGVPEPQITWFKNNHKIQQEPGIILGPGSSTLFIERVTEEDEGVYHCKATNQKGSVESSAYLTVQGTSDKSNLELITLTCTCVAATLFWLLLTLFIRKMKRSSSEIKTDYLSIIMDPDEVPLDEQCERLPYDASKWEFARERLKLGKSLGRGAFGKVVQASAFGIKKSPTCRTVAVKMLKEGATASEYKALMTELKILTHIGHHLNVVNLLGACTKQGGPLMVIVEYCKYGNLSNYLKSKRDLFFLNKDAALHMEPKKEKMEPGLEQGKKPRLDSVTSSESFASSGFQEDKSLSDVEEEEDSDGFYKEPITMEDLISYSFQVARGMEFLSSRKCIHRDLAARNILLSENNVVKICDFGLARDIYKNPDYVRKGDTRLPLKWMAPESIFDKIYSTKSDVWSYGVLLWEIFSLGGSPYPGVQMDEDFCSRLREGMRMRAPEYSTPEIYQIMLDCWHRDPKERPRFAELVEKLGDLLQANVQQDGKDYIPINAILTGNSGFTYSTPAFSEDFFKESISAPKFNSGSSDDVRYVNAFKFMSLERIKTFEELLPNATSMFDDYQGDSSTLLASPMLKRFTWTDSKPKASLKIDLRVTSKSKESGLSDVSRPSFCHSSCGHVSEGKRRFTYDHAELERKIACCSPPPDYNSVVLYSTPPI
Cyclin-dependent kinase 9, sequence (P50750 whole entry): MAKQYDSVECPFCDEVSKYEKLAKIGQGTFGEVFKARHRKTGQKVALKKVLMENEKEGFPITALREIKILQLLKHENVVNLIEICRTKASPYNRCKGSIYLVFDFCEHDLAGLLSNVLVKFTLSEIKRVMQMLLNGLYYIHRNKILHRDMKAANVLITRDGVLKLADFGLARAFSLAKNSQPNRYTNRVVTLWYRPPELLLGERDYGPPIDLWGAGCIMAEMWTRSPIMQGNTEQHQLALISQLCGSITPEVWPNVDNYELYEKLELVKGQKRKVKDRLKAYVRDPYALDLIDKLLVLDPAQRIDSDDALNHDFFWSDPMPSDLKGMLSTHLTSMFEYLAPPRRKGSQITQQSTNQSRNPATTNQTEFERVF
Aurora kinase A, sequence (O14965 whole entry): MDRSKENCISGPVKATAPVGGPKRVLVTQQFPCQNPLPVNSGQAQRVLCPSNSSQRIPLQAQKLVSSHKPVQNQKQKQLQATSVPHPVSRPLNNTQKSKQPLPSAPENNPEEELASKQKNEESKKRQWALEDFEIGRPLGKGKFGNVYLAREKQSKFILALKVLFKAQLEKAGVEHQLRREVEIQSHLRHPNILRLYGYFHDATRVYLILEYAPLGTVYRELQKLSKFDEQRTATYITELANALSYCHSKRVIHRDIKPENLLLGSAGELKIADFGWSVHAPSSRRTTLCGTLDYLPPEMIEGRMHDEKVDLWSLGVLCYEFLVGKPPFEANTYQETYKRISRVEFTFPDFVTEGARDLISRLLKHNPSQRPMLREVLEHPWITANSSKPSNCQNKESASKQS
Cyclin-dependent kinase 7, sequence (P50613 whole entry): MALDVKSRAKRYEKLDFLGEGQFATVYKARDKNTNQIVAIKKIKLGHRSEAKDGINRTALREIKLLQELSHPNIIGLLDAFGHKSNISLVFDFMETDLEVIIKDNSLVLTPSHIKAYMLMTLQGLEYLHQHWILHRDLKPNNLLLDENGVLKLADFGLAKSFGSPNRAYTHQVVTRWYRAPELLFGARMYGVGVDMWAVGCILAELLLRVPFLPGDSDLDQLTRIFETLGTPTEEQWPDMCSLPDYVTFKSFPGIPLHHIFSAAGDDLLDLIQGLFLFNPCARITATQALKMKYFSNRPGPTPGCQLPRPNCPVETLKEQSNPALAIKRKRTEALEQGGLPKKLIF

Compound: COc1ccc(Oc2c(Cl)cnn(CC(=O)N(c3ccccc3)C(C)C)c2=O)cc1
- IC50 [1]: 3.17 µM (active)
- IC50 [2]: 3.17 µM (active)

Compound: COc1ccccc1-c1ccnc(Nc2cccc(S(C)(=O)=O)c2)n1
- Ki [3]: 2.51 µM (active)
- Ki [4]: 0.501 µM (active)
- Ki [5]: 0.0316 µM (active)
- Ki [6]: 0.398 µM (active)
- Ki [7]: 2.51 µM (active)
- Ki [8]: > 3.16 µM (inactive)
- Ki [9]: 3.16 µM (active)
- Ki [10]: 3.98 µM (active)
- Ki [11]: > 2.51 µM (inactive)
- Ki [12]: > 2.51 µM (inactive)
- Ki [13]: 0.794 µM (active)
- Ki [14]: > 3.16 µM (inactive)
- Ki [15]: > 3.98 µM (inactive)
- Ki [16]: 0.398 µM (active)
- Ki [17]: > 6.31 µM (inactive)
- Ki [18]: > 2.51 µM (inactive)
- Ki [19]: 0.501 µM (active)
- Ki [20]: 0.501 µM (active)
- Ki [21]: > 2 µM (inactive)
- Ki [22]: 0.316 µM (active)
- Ki [23]: > 1.26 µM (inactive)
- Ki [24]: > 3.16 µM (inactive)
- Ki [25]: 0.2 µM (active)
- Ki [26]: > 3.16 µM (inactive)
- Ki [27]: > 3.16 µM (inactive)
- Ki [28]: > 5.01 µM (inactive)
- Ki [29]: > 3.16 µM (inactive)
- Ki [30]: > 3.16 µM (inactive)
- Ki [31]: > 3.16 µM (inactive)
- Ki [32]: > 5.01 µM (inactive)
- Ki [33]: 2.51 µM (active)
- Ki [34]: > 3.98 µM (inactive)
- Ki [35]: > 6.31 µM (inactive)
- Ki [36]: > 2.51 µM (inactive)
- Ki [37]: > 6.31 µM (inactive)
- Ki [38]: > 3.98 µM (inactive)
- Ki [39]: 1 µM (active)
- Ki [40]: 1 µM (active)
- Ki [41]: 3.98 µM (active)
- Ki [42]: > 3.98 µM (inactive)
- Ki [43]: 0.501 µM (active)
- Ki [44]: > 2.51 µM (inactive)
- Ki [45]: > 3.98 µM (inactive)
- Ki [46]: 2.51 µM (active)
- Ki [47]: > 6.31 µM (inactive)
- Ki [48]: > 3.98 µM (inactive)
- Ki [49]: > 5.01 µM (inactive)
- Ki [50]: > 3.98 µM (inactive)
- Ki [51]: > 3.98 µM (inactive)
- Ki [52]: > 2.51 µM (inactive)
- Ki [53]: 0.794 µM (active)
- Ki [54]: 2.51 µM (active)
- Ki [55]: 0.794 µM (active)
- Ki [56]: 0.631 µM (active)
- Ki [57]: > 2.51 µM (inactive)
- Ki [58]: > 3.98 µM (inactive)
- Ki [59]: > 3.16 µM (inactive)

Compound: Cc1cccc(CNC(=O)c2cnn3c(-c4ccccc4)ccnc23)c1C
- Ki [22]: 7.94 µM (active)
- Ki [60]: 7.94 µM (active)
- Ki [61]: 2.51 µM (active)
- Ki [37]: 5.01 µM (active)
- Ki [62]: 2.51 µM (active)
- Ki [53]: 1.58 µM (active)
